Laboratory results as given in ChEMBL document CHEMBL2021794, “Synthesis, σ₁, σ₂-receptors binding affinity and antiproliferative action of new C1-substituted adamantanes” (Bioorg Med Chem, 2012).
Activity calls are given as the source filed them. The rule behind the calls is not given here.

Tests used:
[1] = tested on: MCF7; assay: Cytotoxicity against human MCF7 cells after 48 hrs by trypan blue assay; format: functional, cell-based
[2] = tested on: IGROV-1; assay: Induction of apoptosis in human IGROV1 cells assessed as cleaved caspase-3 containing cells at 5 uM after 24 hrs by FACS analysis (reference value: 4%); format: functional
[3] = tested on: BXPC-3; assay: Cell cycle arrest in human BxPC3 cells assessed as accumulation at >G2 phase at 15 uM after 24 hrs by propidium iodide staining based flow cytometry (reference value: 6%); format: functional
[4] = tested on: IGROV-1; assay: Cell cycle arrest in human IGROV1 cells assessed as accumulation at < G1 phase at 5 uM after 24 hrs by propidium iodide staining based flow cytometry (reference value: 4%); format: functional
[5] = tested on: Mus musculus; assay: Toxicity in CD1 mouse assessed as weight loss at 40 mg/kg, ip after 3 to 4 weeks chronic treatment; format: organism-based; parameters: dose 40 mg/kg, route intraperitoneal; conditions: in vivo
[6] = tested on: DU-145; assay: Cytotoxicity against human DU145 cells after 48 hrs by trypan blue assay; format: functional, cell-based
[7] = tested on: PC-3; assay: Cell cycle arrest in human PC3 cells assessed as accumulation at < G1 phase at 0.5 uM after 24 hrs by propidium iodide staining based flow cytometry (reference value: 4%); format: functional
[8] = molecular target: Sigma non-opioid intracellular receptor 1 (Homo sapiens, UniProt Q99720); assay: Displacement of [3H](+)pentazocine from sigma-1 receptor expressed in human Jurkat cell membranes after 2 hrs by liquid scintillation spectroscopy
[9] = tested on: MCF7; assay: Growth inhibition of human MCF7 cells after 48 hrs by SRB assay; format: functional; conditions: MCF7, 48 h
[10] = tested on: BXPC-3; assay: Induction of apoptosis in human BxPC3 cells assessed as late apoptotic cells at 0.5 uM after 24 hrs by Annexin V/7-AAD staining based flow cytometry (reference value: 9%); format: functional
[11] = tested on: BXPC-3; assay: Growth inhibition of human BxPC3 cells after 48 hrs by SRB assay; format: functional; conditions: BXPC-3, 48 h
[12] = tested on: BXPC-3; assay: Cell cycle arrest in human BxPC3 cells assessed as accumulation at G2 phase at 5 uM after 24 hrs by propidium iodide staining based flow cytometry (reference value: 12%); format: functional
[13] = tested on: H69AR; assay: Growth inhibition of human H69AR cells after 48 hrs by SRB assay; format: functional
[14] = tested on: Mus musculus; assay: Toxicity in SCID mouse assessed as weight loss at 40 mg/kg, ip after 3 to 4 weeks chronic treatment; format: organism-based; parameters: dose 40 mg/kg, route intraperitoneal; conditions: in vivo
[15] = tested on: IGROV-1; assay: Cell cycle arrest in human IGROV1 cells assessed as accumulation at G1 phase at 15 uM after 24 hrs by propidium iodide staining based flow cytometry (reference value: 27%); format: functional
[16] = tested on: BXPC-3; assay: Antitumor activity against human BxPC3 cells xenografted in SCID mouse assessed as reduction in tumor volume at 40 mg/kg, ip for 5 consecutive days and 2 administrations for one more week; format: functional; conditions: BXPC-3, ip, route intraperitoneal
[17] = tested on: PC-3; assay: Cell cycle arrest in human PC3 cells assessed as accumulation at < G1 phase at 15 uM after 24 hrs by propidium iodide staining based flow cytometry (reference value: 4%); format: functional
[18] = tested on: PC-3; assay: Induction of apoptosis in human PC3 cells assessed as cleaved caspase-3 containing cells at 5 uM after 24 hrs by FACS analysis (reference value: 3%); format: functional
[19] = tested on: BXPC-3; assay: Induction of apoptosis in human BxPC3 cells assessed as cleaved caspase-3 containing cells at 0.5 uM after 24 hrs by FACS analysis (reference value: 10%); format: functional
[20] = tested on: BXPC-3; assay: Cell cycle arrest in human BxPC3 cells assessed as accumulation at G2 phase at 0.5 uM after 24 hrs by propidium iodide staining based flow cytometry (reference value: 12%); format: functional
[21] = tested on: IGROV-1; assay: Induction of apoptosis in human IGROV1 cells assessed as early apoptotic cells at 0.5 uM after 24 hrs by Annexin V/7-AAD staining based flow cytometry (reference value: 9%); format: functional
[22] = tested on: U-251; assay: Growth inhibition of human U251 cells after 48 hrs by SRB assay; format: functional; conditions: U-251, 48 h
[23] = tested on: IGROV-1; assay: Cell cycle arrest in human IGROV1 cells assessed as accumulation at G1 phase at 5 uM after 24 hrs by propidium iodide staining based flow cytometry (reference value: 27%); format: functional
[24] = tested on: BXPC-3; assay: Induction of apoptosis in human BxPC3 cells assessed as late apoptotic cells at 50 uM after 24 hrs by Annexin V/7-AAD staining based flow cytometry (reference value: 9%); format: functional
[25] = tested on: PC-3; assay: Cell cycle arrest in human PC3 cells assessed as accumulation at G2 phase at 5 uM after 24 hrs by propidium iodide staining based flow cytometry (reference value: 13%); format: functional
[26] = tested on: BXPC-3; assay: Induction of apoptosis in human BxPC3 cells assessed as early apoptotic cells at 0.5 uM after 24 hrs by Annexin V/7-AAD staining based flow cytometry (reference value: 11%); format: functional
[27] = tested on: PC-3; assay: Cell cycle arrest in human PC3 cells assessed as accumulation at G1 phase at 0.5 uM after 24 hrs by propidium iodide staining based flow cytometry (reference value: 36%); format: functional
[28] = tested on: HCT-15; assay: Growth inhibition of human HCT15 cells after 48 hrs by SRB assay; format: functional; conditions: HCT-15, 48 h
[29] = tested on: Mus musculus; assay: Analgesic activity against formalin-induced neuropathic pain in paclitaxel treated CD1 mouse assessed as decrease of time spent in paw licking at 100 mg/kg, po administered 14 days post paclitaxel dosing and 1 hr prior formalin challenge measured for 35 to 40 mins post formalin challenge; format: functional, organism-based; parameters: dose 100 mg/kg
[30] = tested on: HCT-116; assay: Cytotoxicity against human HCT116 cells after 48 hrs by trypan blue assay; format: functional, cell-based
[31] = tested on: SK-HEP1; assay: Growth inhibition of human SKHEP1 cells after 48 hrs by SRB assay; format: functional; conditions: SK-HEP1, 48 h
[32] = tested on: PC-3; assay: Induction of apoptosis in human PC3 cells assessed as late apoptotic cells at 15 uM after 24 hrs by Annexin V/7-AAD staining based flow cytometry (reference value: 2%); format: functional
[33] = tested on: DMS-114; assay: Growth inhibition of human DMS114 cells after 48 hrs by SRB assay; format: functional; conditions: DMS-114, 48 h
[34] = tested on: BXPC-3; assay: Induction of apoptosis in human BxPC3 cells assessed as healthy cells at 5 uM after 24 hrs by Annexin V/7-AAD staining based flow cytometry (reference value: 77%); format: functional
[35] = tested on: BXPC-3; assay: Induction of apoptosis in human BxPC3 cells assessed as total apoptotic death cells at 50 uM after 24 hrs by Annexin V/7-AAD staining based flow cytometry (reference value: 20%); format: functional
[36] = tested on: PC-3; assay: Induction of apoptosis in human PC3 cells assessed as late apoptotic cells at 0.5 uM after 24 hrs by Annexin V/7-AAD staining based flow cytometry (reference value: 2%); format: functional
[37] = tested on: PC-3; assay: Cell cycle arrest in human PC3 cells assessed as accumulation at >G2 phase at 0.5 uM after 24 hrs by propidium iodide staining based flow cytometry (reference value: 6%); format: functional
[38] = read-out: LC50 (the source's name)

Sigma non-opioid intracellular receptor 1, sequence (Q99720 whole entry): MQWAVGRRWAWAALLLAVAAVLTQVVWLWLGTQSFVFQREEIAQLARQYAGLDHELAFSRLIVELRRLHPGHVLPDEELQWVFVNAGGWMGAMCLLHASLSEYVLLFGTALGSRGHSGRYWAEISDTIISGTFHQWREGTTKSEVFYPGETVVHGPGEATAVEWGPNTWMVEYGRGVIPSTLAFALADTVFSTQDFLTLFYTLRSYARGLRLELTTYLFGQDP

Q: With `CN1CCN(c2ccc(C(c3ccccc3)C34CC5CC(CC(C5)C3)C4)cc2)CC1` (stereo unspecified) as the compound, how does the Activity [1] read?
A: The Activity was “Active”.

Q: And the Activity [2]?
A: Its Activity is 7%.

Q: What about the Activity [3] of the same compound?
A: The Activity was 5%.

Q: And the Activity [4]?
A: The Activity was 5%.

Q: And the Activity [5]?
A: The Activity was “Non-toxic”.

Q: And the Activity [6]?
A: The Activity was “Active”.

Q: And the Activity [7]?
A: Its Activity is 9%.

Q: What about the IC50 [8] of the same compound?
A: The IC50 was 0.0032 µM.

Q: What about the GI50 [9] of the same compound?
A: Its GI50 is 11.6 µM.

Q: What about the TGI [9] of the same compound?
A: The TGI was 16.9 µM.

Q: And the CC50 [9, 38]?
A: The CC50 was 3.17 µM.

Q: What about the Activity [10] of the same compound?
A: The Activity was 6%.

Q: And the GI50 [11]?
A: The GI50 was 3.84 µM.

Q: And the LC50 [11]?
A: The LC50 was 16.6 µM.

Q: And the TGI [11]?
A: The TGI was 6.96 µM.

Q: And the Activity [12]?
A: The Activity was 12%.

Q: And the GI50 [13]?
A: Its GI50 is 6.04 µM.

Q: What about the TGI [13] of the same compound?
A: Its TGI is 18.4 µM.

Q: And the CC50 [13, 38]?
A: The CC50 was 90.5 µM.

Q: And the Activity [14]?
A: The Activity was “Non-toxic”.

Q: What about the Activity [15] of the same compound?
A: The Activity was 21%.

Q: And the inhibition in vivo at 40 mg/kg [16]?
A: The inhibition in vivo at 40 mg/kg was 37.8%.

Q: What about the Activity [17] of the same compound?
A: Its Activity is 8%.

Q: And the Activity [18]?
A: The Activity was 2%.

Q: What about the Activity [19] of the same compound?
A: The Activity was 3%.

Q: What about the Activity [20] of the same compound?
A: The Activity was 12%.

Q: And the Activity [21]?
A: Its Activity is 8%.

Q: And the GI50 [22]?
A: The GI50 was 4 µM.

Q: What about the TGI [22] of the same compound?
A: The TGI was 6.57 µM.

Q: What about the CC50 [22, 38] of the same compound?
A: Its CC50 is 9.14 µM.

Q: And the Activity [23]?
A: The Activity was 25%.

Q: And the Activity [24]?
A: The Activity was 33%.

Q: And the Activity [25]?
A: Its Activity is 13%.

Q: What about the Activity [26] of the same compound?
A: The Activity was 10%.

Q: And the Activity [27]?
A: Its Activity is 33%.

Q: And the GI50 [28]?
A: The GI50 was 5.54 µM.

Q: And the LC50 [28]?
A: Its LC50 is 100 µM.

Q: And the TGI [28]?
A: Its TGI is 12.8 µM.

Q: What about the Activity [29] of the same compound?
A: The Activity was “Active”.

Q: What about the Activity [30] of the same compound?
A: Its Activity is “Active”.

Q: And the GI50 [31]?
A: Its GI50 is 6.05 µM.

Q: And the TGI [31]?
A: Its TGI is 28.4 µM.

Q: And the CC50 [31, 38]?
A: The CC50 was 77.6 µM.

Q: And the Activity [32]?
A: Its Activity is 3%.

Q: And the GI50 [33]?
A: The GI50 was 5.43 µM.

Q: And the TGI [33]?
A: The TGI was 9.17 µM.

Q: And the CC50 [33, 38]?
A: The CC50 was 100 µM.

Q: What about the Activity [34] of the same compound?
A: The Activity was 65%.

Q: And the Activity [35]?
A: The Activity was 48%.

Q: What about the Activity [36] of the same compound?
A: Its Activity is 1%.

Q: What about the Activity [37] of the same compound?
A: The Activity was 4%.
